From patent publication US9499502B2, “5-substituted iminothiazines and their mono- and dioxides as BACE inhibitors, compositions, and their use” (Merck Sharp & Dohme Corp., priority 2011, dated 2016)

target: soluble human BACE1 catalytic domain (Homo sapiens (Human), UniProt P56817); test: BACE1 HTRF FRET Assay; settings: BACE1 Ki (nM)
Sequence (P56817 75-416): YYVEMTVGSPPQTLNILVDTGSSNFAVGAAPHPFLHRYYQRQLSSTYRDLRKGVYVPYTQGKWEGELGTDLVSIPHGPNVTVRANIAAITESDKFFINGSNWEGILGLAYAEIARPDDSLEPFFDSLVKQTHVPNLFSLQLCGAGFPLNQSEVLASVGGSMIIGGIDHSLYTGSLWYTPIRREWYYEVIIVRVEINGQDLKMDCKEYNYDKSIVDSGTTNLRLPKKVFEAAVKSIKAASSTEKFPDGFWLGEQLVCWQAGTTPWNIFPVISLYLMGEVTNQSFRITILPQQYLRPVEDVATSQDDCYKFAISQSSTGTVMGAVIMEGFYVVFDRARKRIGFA

| Ki [nM] | Structure (SMILES) |
| --- | --- |
| 3860 | Cc1nc2cc(CC3(C)C(=N)N[C@](C)(c4cc(F)ccc4F)CS3(=O)=O)ccc2o1 (single isomer, unassigned) [Example 32a-a] |
| 791 | C[C@@]1(c2sc(-c3nnc(-c4ccc(Cl)cc4)o3)cc2F)CS(=O)(=O)[C@@](C)(c2ccccn2)C(=N)N1 [Example 27bz-b] |

same assay, conditions: BACE1 Ki (nM), Ki calculated from IC50 using the Cheng-Prusoff equation

| Structure (SMILES) | Ki [nM] |
| --- | --- |
| CC1(C)C(=N)N[C@](C)(c2cc(NC(=O)c3ccc(F)cn3)ccc2F)CS1(=O)=O [Example 1] | < 5 |

same assay, conditions: read-out: BACE1 % Inh. at 10 μM, at 10 μM

| inhibition at 10 µM [%] | Structure (SMILES) |
| --- | --- |
| 31 | COc1cccc2cc(-c3ccc(F)c([C@]4(C)CS(=O)(=O)C(C)(C)C(=N)N4)n3)[nH]c12 [Example 16e] |

same assay, conditions: read-out: BACE1 Ki

| Ki [nM] | Structure (SMILES) |
| --- | --- |
| 102 | CC1(C)C(=N)N[C@](C)(c2sc(-c3cncc(C#N)c3)cc2F)CS1(=O)=O [Example 27ap] |
| 3820 | COc1cccc(C[C@]2(C)C(=N)N[C@](C)(c3ccc(F)cc3F)CS2(=O)=O)c1 [Example 32i-b] |
| 74 | CC1(C)C(=N)N[C@](C)(c2cc(-c3cccc(-c4cnco4)c3)cs2)CS1(=O)=O [Example 27ai] |
| 48.9 | CC1(C)C(=N)N[C@](C)(c2sc(-c3nnc(-c4ccc(C#N)cc4)o3)cc2F)CS1(=O)=O [Example 27bi] |
| 163 | C[C@]1(CC2CCOCC2)C(=N)N[C@](C)(c2sc(-c3cncc(C#N)c3)cc2Cl)CS1(=O)=O [Example 27bw] |
| 926 | COc1cc(-c2cc(Cl)c([C@]3(C)CS(=O)(=O)C(C)(C)C(=N)N3)s2)ccn1 [Example 27k] |
| 480 | Cc1nnc(-c2cccc(-c3cc(F)c([C@]4(C)CS(=O)(=O)C(C)(C)C(=N)N4)s3)c2)o1 [Example 27ay] |
| 943 | COc1cncc(-c2cc(F)c([C@]3(C)CS(=O)(=O)C(C)(C)C(=N)N3)s2)n1 [Example 27au] |
| 1720 | COc1ncc(-c2cc(Cl)c([C@]3(C)CS(=O)(=O)C(C)(C)C(=N)N3)s2)cn1 [Example 27y] |
| 268 | C[C@@]1(c2sc(-c3cncc(C#N)c3)cc2F)CS(=O)(=O)[C@@](C)(c2ccccn2)C(=N)N1 [Example 27bq-a] |
| 291 | CC1(C)C(=N)N[C@](C)(c2sc(-c3ccc(C#N)c(C(F)(F)F)c3)cc2Cl)CS1(=O)=O [Example 27t] |
| 17.8 | C[C@@]1(c2sc(-c3cccc(-c4nnco4)c3)cc2F)CS(=O)(=O)[C@@](C)(c2ccccn2)C(=N)N1 [Example 27bp-a] |
| 108 | COc1cccc2nc(-c3cc(Cl)c([C@]4(C)CS(=O)(=O)C(C)(C)C(=N)N4)s3)cn12 [Example 28c] |
| 1170 | COCC1(COC)C(=N)N[C@](C)(c2sc(-c3cccc(-c4nnco4)c3)cc2Cl)CS1(=O)=O [Example 27bu] |
| 663 | CC1(C)C(=N)N[C@](C)(c2sc(-c3ccnc(C4CC4)c3)cc2F)CS1(=O)=O [Example 27av] |
| 2500 | C[C@@]1(c2ccccn2)C(=N)N[C@](C)(c2sc(-c3cncc(C#N)c3)cc2F)CS1(=O)=O [Example 27bq-b] |
| 113 | CC1(C)C(=N)N[C@](C)(c2cc(-c3cccc(-c4ccno4)c3)cs2)CS1(=O)=O [Example 27aj] |
| 1100 | COc1cccc([C@@]2(C)C(=N)N[C@](C)(c3cc(F)ccc3F)CS2(=O)=O)c1 [Example 32e-a] |
| 3170 | C[C@@]1(c2ccccc2F)C(=N)N[C@](C)(c2sc(-c3cccc(C#N)c3)cc2F)CS1(=O)=O [Example 27bs-b] |

same assay, conditions: read-out: BACE1 Ki; Ki calculated from IC50 using the Cheng-Prusoff equation

| Ki [nM] | Structure (SMILES) |
| --- | --- |
| 476 | CC1(C)C(=N)N[C@](C)(c2cc(NC(=O)C3CCC3)ccc2F)CS1(=O)=O [Example 9aq] |
| 5.8 | C[C@@]1(c2cc(NC(=O)c3ccc(F)cn3)ccc2F)CS(=O)(=O)[C@@](C)(c2cccc(C(F)(F)F)c2)C(=N)N1 [Example 9co-a] |
| 1340 | CC1(C)C(=N)N[C@](C)(c2cc(NC(=O)CC3CC3)cc(F)c2F)CS1(=O)=O [Example 9bv] |
| 1800 | CC1(C)C(=N)N[C@](C)(c2sc(C(=O)NCc3ccc(C(F)(F)F)cn3)cc2Cl)CS1(=O)=O [Example 22p] |
| 0.6 | CC1(C)C(=N)N[C@](C)(c2cc(NC(=O)c3ccc(OC(F)F)cn3)ccc2F)CS1(=O)=O [Example 9c] |
| 359 | CC1(C)C(=N)N[C@](C)(c2cc(NC(=O)C3CC3)ccc2F)CS1(=O)=O [Example 9am] |
| 134 | CCc1cccc(NC(=O)c2cc(Cl)c([C@]3(C)CS(=O)(=O)C(C)(C)C(=N)N3)s2)n1 [Example 19] |
| 708 | CC1(C(=O)Nc2cc(F)c(F)c([C@]3(C)CS(=O)(=O)C(C)(C)C(=N)N3)c2)CC1 [Example 9az] |
| 128 | CC1(C)C(=N)N[C@](C)(c2sc(C(=O)NCc3cnn4ccccc34)cc2Cl)CS1(=O)=O [Example 22s] |
| 4 | C=CC[C@@]1(C)C(=N)N[C@](C)(c2cc(NC(=O)c3cnc(OC)cn3)ccc2F)CS1(=O)=O [Example 9dm-a] |
| 31.6 | CC(C)[C@@]1(C)C(=N)N[C@](C)(c2cc(NC(=O)c3ccc(F)cn3)ccc2F)CS1(=O)=O [Example 9ea-a] |
| 216 | COc1ccc(C(=O)Nc2ccc(F)c([C@]3(C)CS(=O)(=O)[C@](C)(c4cccc(F)c4)C(=N)N3)c2)nc1 [Example 9dc-b] |
| 1180 | CC1(C)C(=N)N[C@](C)(c2sc(C(=O)NCc3ncc(F)cc3Cl)cc2Cl)CS1(=O)=O [Example 22o] |
| 1020 | CC(=O)Nc1cc(F)c(F)c([C@]2(C)CS(=O)(=O)C(C)(C)C(=N)N2)c1 [Example 9bn] |
| 16.5 | COc1ccc(C(=O)Nc2ccc(F)c([C@]3(C)CS(=O)(=O)[C@@](C)(C(C)C)C(=N)N3)c2)nc1 [Example 9eb-a] |
| 4630 | CC1(C)C(=N)N[C@](C)(c2sc(C(=O)NCc3ccc4cnccc4c3)cc2Cl)CS1(=O)=O [Example 22d] |
| 1.6 | C[C@@]1(c2cc(NC(=O)c3ccc(F)cn3)ccc2F)CS(=O)(=O)[C@@](C)(c2cc(C(F)(F)F)ccn2)C(=N)N1 [Example 9ed-a] |
| 35.4 | CC1(C)C(=N)N[C@](C)(c2c(F)c(F)cc(NC(=O)c3ccc(F)cn3)c2F)CS1(=O)=O [Example 9aa] |
| 26.9 | COc1ccc(C(=O)Nc2ccc(F)c([C@]3(C)CS(=O)(=O)[C@](C)(CC4CC4)C(=N)N3)c2)nc1 [Example 9dj-b] |

| Ki [nM] | Structure (SMILES) |
| --- | --- |
| 258 | CC1(C)C(=N)N[C@](C)(c2sc(-c3nnc(-c4ccccc4)o3)cc2Cl)CS1(=O)=O [Example 27ba] |
| 101 | CC1(C)C(=N)N[C@](C)(c2nc(NC(=O)c3ccncn3)ccc2F)CS1(=O)=O [Example 9ch] |
| 7.8 | C[C@@]1(c2cc(NC(=O)c3ccc(F)cn3)ccc2F)CS(=O)(=O)[C@@](C)(c2ccccn2)C(=N)N1 [Example 9cv-a] |
| 55.1 | COc1ccc(C(=O)Nc2ccc(F)c([C@]3(C)CS(=O)(=O)C(C)(C)C(=N)N3)n2)nc1 [Example 9ce] |
| 4.5 | COc1cnc(C(=O)Nc2ccc(F)c([C@]3(C)CS(=O)(=O)[C@@](C)(c4ccc(F)cc4)C(=N)N3)c2)cn1 [Example 9dg-a] |
| 8.2 | CC1(C)C(=N)N[C@](C)(c2sc(-c3cccc(-c4nnco4)c3)cc2Cl)CS1(=O)=O [Example 27b] |
| 429 | CCC(=O)Nc1cc(F)c(F)c([C@]2(C)CS(=O)(=O)C(C)(C)C(=N)N2)c1 [Example 9be] |
| 0.7 | CC1(C)C(=N)N[C@](C)(c2cc(NC(=O)c3cnc(C(F)(F)F)cn3)ccc2F)CS1(=O)=O [Example 9e] |
| 3.6 | CC1(C)C(=N)N[C@](C)(c2cc(NC(=O)c3cnc(C(F)F)cn3)ccc2F)CS1(=O)=O [Example 9q] |
| 5.6 | CC[C@@]1(C)C(=N)N[C@](C)(c2cc(NC(=O)c3ccc(OC)cn3)ccc2F)CS1(=O)=O [Example 9cm-a] |
| 1150 | CC1(C(=O)Nc2cc(F)c(F)c([C@]3(C)CS(=O)(=O)C(C)(C)C(=N)N3)c2)COC1 [Example 9bp] |
| 22.5 | CC[C@]1(C)C(=N)N[C@](C)(c2cc(NC(=O)c3ccc(F)cn3)ccc2F)CS1(=O)=O [Example 9cl-b] |
| 759 | Cc1ccc(CNC(=O)c2cc(Cl)c([C@]3(C)CS(=O)(=O)C(C)(C)C(=N)N3)s2)nn1 [Example 22e] |
| 8580 | CC1(C)C(=N)N[C@](C)(c2cc(NC(=O)C3CCOCC3)ccc2F)CS1(=O)=O [Example 9av] |
| 4960 | CC1(C)C(=N)N[C@](C)(c2nc(-c3cccc(C#N)c3)ccc2F)CS1(=O)=O [Example 16b] |
| 753 | CC1(C)C(=N)N[C@](C)(c2sc(C(=O)NCc3ccc(F)cc3)cc2Cl)CS1(=O)=O [Example 22j] |
| 3.3 | CC1(C)C(=N)N[C@](C)(c2cc(NC(=O)c3ccc(Cl)cn3)cc(Cl)c2F)CS1(=O)=O [Example 9t] |
| 1490 | CC1(C(=O)Nc2ccc(F)c([C@]3(C)CS(=O)(=O)C(C)(C)C(=N)N3)c2)CC1 [Example 9aj] |
| 4.6 | COc1ccc(C(=O)Nc2ccc(F)c([C@]3(C)CS(=O)(=O)C(C)(C)C(=N)N3)c2)nc1 [Example 9a] |

| Structure (SMILES) | Ki [nM] |
| --- | --- |
| C[C@@]1(c2cc(NC(=O)c3ccc(F)cn3)ccc2F)CS(=O)(=O)[C@@](C)(c2ccc(F)cc2)C(=N)N1 [Example 9df-a] | 2.3 |
| CC1(C)C(=N)N[C@](C)(c2cc(NC(=O)c3ccc(F)cn3)ccc2F)CS1(=O)=O [Example 1] | 1.2 |

same assay, conditions: read-out: BACE1 inhibition, % Inh. at 10 μM, at 10 μM

| inhibition at 10 µM [%] | Structure (SMILES) |
| --- | --- |
| 48 | C[C@@]1(c2cccc(O)c2)C(=N)N[C@](C)(c2cc(F)ccc2F)CS1(=O)=O [Example 34c-b] |
| 41 | CC1(c2nc(C#Cc3ccc(F)cc3)ccc2F)CS(=O)(=O)C(C)(C)C(=N)N1 (stereo not drawn) [Example 31a] |

same assay, conditions: read-out: BACE1 inhibition, Ki

| Ki [nM] | Structure (SMILES) |
| --- | --- |
| 1100 | C[C@@]1(c2cc(N)ccc2F)CS(=O)(=O)[C@@](C)(c2cccc(F)c2)C(=N)N1 [Entry 60] |
| 4600 | C[C@@]1(c2cc(N)ccc2F)CS(=O)(=O)[C@@](C)(c2cc(C(F)(F)F)ccn2)C(=N)N1 [Entry 73] |
| 1700 | C[C@@]1(c2cc(N)ccc2F)CS(=O)(=O)[C@@](C)(C2CCC2)C(=N)N1 [Entry 39] |
| 1000 | C[C@@]1(c2cc(F)ccc2F)CS(=O)(=O)[C@@](C)(c2cccc(O)c2)C(=N)N1 [Example 34c-a] |
| 4800 | CC(C)[C@@]1(C)C(=N)N[C@](C)(c2cc(N)ccc2F)CS1(=O)=O [Entry 27] |
| 3100 | CC1(C)C(=N)N[C@](C)(c2cc(N)cc(Cl)c2F)CS1(=O)=O [Example 2A-7] |

| Structure (SMILES) | Ki [nM] |
| --- | --- |
| CC1(C)C(=N)N[C@](C)(c2cccc(Cl)c2F)CS1(=O)=O [Entry 7] | 1400 |
